Data: ChEMBL document CHEMBL3526122, “Identification of UDP-glucuronosyltransferases responsible for the glucuronidation of darexaban, an oral factor Xa inhibitor, in human liver and intestine” (Drug Metab Dispos, 2012)

Tests used:
[1] = target: T1, UDP-glucuronosyltransferase 1A9 (Homo sapiens, UniProt O60656); assay: Activity of human recombinant UGT1A9 expressed in baculovirus-infected insect cells assessed as intrinsic clearance for enzyme-mediated glucuronide formation per mg of protein at 1 to 250 uM after 5 mins by Michaelis-Menten plot analysis in presence of UDPGA; type: ADME
T1 sequence (O60656 whole entry): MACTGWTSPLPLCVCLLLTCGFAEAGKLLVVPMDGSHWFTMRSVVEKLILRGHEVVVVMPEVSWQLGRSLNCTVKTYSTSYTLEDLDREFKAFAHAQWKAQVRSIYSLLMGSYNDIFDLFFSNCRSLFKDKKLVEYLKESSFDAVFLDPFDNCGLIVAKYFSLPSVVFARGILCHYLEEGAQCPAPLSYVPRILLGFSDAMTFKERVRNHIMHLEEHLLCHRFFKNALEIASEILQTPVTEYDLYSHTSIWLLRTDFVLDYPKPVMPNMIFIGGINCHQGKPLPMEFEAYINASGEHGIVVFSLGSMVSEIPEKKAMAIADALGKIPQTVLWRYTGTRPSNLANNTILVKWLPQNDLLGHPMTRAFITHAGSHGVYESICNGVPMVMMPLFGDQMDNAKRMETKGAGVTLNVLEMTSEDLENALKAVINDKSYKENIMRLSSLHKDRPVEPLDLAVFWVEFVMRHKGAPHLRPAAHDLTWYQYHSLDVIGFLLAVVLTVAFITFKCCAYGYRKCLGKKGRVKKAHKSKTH

[2] = target: T2, UDP-glucuronosyltransferase 1A10 (Homo sapiens, UniProt Q9HAW8); assay: Inhibition of human recombinant UGT1A10 after 10 mins in presence of UDPGA; type: ADME
T2 sequence (Q9HAW8 whole entry): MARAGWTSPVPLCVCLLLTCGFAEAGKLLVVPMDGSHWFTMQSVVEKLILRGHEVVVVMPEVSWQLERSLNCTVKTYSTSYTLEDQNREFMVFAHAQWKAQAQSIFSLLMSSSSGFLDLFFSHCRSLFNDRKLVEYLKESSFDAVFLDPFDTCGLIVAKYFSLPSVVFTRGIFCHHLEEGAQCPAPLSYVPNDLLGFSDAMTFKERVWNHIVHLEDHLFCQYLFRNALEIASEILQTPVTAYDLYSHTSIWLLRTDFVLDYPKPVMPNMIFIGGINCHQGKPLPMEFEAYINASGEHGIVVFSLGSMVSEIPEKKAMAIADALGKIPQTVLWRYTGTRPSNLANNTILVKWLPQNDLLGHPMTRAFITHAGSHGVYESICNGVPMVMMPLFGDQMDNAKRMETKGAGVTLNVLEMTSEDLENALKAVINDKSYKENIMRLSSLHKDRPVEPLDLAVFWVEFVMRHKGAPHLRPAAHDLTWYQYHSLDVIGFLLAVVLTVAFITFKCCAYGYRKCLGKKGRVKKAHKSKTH

[3] = target: T3, UDP-glucuronosyltransferase 1A8 (Homo sapiens, UniProt Q9HAW9); assay: Ratio of Ki to Km for human recombinant UGT1A8 expressed in baculovirus-infected insect cells; type: ADME; settings: recombinant enzyme
T3 sequence (Q9HAW9 whole entry): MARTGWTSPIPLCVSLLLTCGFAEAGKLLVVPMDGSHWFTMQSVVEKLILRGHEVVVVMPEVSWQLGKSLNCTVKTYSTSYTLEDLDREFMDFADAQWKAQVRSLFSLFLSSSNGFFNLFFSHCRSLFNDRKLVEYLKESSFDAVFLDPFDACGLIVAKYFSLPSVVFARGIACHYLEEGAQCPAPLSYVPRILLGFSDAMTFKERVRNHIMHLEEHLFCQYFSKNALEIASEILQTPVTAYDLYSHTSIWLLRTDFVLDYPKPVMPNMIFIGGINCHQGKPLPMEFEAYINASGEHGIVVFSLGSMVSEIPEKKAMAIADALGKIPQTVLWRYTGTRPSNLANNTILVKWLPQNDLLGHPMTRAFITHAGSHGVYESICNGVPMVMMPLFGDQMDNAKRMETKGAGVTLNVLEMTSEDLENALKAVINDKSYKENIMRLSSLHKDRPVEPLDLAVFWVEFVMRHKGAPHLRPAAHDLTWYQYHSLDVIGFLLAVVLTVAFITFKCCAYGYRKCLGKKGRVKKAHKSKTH

[4] = target: T2, UDP-glucuronosyltransferase 1A10; assay: Ratio of Ki to Km for human recombinant UGT1A10 expressed in baculovirus-infected insect cells; type: ADME; settings: recombinant enzyme
[5] = Drug metabolism in human liver microsomes assessed as glucuronidation after 10 mins by Michaelis-Menten plot analysis in presence of UDPGA; type: ADME
[6] = Drug metabolism in human intestinal microsomes assessed as glucuronidation after 5 mins by Michaelis-Menten plot analysis in presence of UDPGA; type: ADME, Intestine, Microsome
[7] = target: T1, UDP-glucuronosyltransferase 1A9; assay: Activity of recombinant human UGT1A9 expressed in baculovirus-infected insect cells assessed as enzyme-mediated glucuronidation per mg of protein after 5 mins in presence of UDPGA; type: ADME
[8] = target: T4, UDP-glucuronosyltransferase 1A3 (Homo sapiens, UniProt P35503); assay: Activity of human recombinant UGT1A3 expressed in baculovirus-infected insect cells assessed as enzyme-mediated glucuronidation per mg of protein after 10 mins in presence of UDPGA; type: ADME
T4 sequence (P35503 whole entry): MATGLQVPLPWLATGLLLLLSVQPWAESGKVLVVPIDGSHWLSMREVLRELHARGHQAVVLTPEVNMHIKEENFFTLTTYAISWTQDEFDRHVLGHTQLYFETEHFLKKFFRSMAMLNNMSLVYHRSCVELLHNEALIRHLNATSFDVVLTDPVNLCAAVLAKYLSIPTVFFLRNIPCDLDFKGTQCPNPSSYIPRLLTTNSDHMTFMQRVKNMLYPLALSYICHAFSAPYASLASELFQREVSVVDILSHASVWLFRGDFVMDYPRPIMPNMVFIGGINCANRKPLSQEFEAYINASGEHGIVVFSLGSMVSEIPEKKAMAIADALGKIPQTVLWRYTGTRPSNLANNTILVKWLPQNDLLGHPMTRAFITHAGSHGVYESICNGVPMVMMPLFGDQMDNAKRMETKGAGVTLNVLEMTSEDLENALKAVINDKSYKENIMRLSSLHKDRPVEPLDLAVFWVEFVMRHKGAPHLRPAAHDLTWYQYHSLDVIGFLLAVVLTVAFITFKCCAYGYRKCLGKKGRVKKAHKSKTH

Liver microsome = assay: Unbound intrinsic clearance in human liver microsomes assessed per mg of protein after 10 mins in presence of UDPGA and 2% fatty acid free BSA; type: ADME
[9] = target: T1, UDP-glucuronosyltransferase 1A9; assay: Activity of human recombinant UGT1A9 expressed in baculovirus-infected insect cells assessed as unbound intrinsic clearance for enzyme-mediated glucuronidation per mg of protein after 5 mins by Michaelis-Menten plot analysis in presence of UDPGA and 2% fatty acid free BSA; type: ADME
[10] = Ratio of Km for drug metabolism in human liver microsomes to Km for human recombinant UGT1A9-mediated drug metabolism; type: ADME; settings: recombinant enzyme

clearance [1]: 132 µL/min/mg
Ki [2]: 235 µM
Ratio [3]: 30
Ratio [4]: 6.9
Km at 10 min [5]: > 250 µM
Km at 5 min [6]: 27.3 µM
Drug metabolism [7]: 2.43 nmol/min/mg
Drug metabolism [8]: < 0.01 nmol/min/mg
CL free (Liver microsome): 178 µL/min/mg
CL free [9]: 316 µL/min/mg
Ratio [10]: 4.3
SMILES: COc1ccc(C(=O)Nc2cccc(O)c2NC(=O)c2ccc(N3CCCN(C)CC3)cc2)cc1.O=C(O)CCC(=O)O
